{
  "source": "patent US20060142593A1",
  "about": "“Platinum compounds” (Sonus Pharmaceuticals, Inc., priority 2002, published 2006)",
  "key": {"OVCAR-3 cells [1]": {"system": "OVCAR-3 cells", "conditions": "OVCAR-3, previously determined NCI value; cited from earlier work"}, "NCI-H460 cells [2]": {"system": "NCI-H460 cells", "assay": "Cytotoxicity assay (sulforhodamine B), NCI-H460", "type": "cell-based", "description": "(§1) Methods. NCI-H460, HCT-15, OVCAR-3, CACO-2, MCF-7, HT-29, and HCT-116 cells were inoculated into 96 well microtiter plates in 100 microliters of medium at plating densities ranging from 5000 to 40000 cells/well, as given by NCI tables. After cell inoculation, the microtiter plates were incubated at 37° C., 5% CO2, 95% air, and 100% relative humidity for 24 hours. After 24 hours, 2 control plates of each cell line (time zero controls) were fixed by the addition of 30% trichloroacetic acid (TCA, final TCA concentration is 10% w/v). S-9168 was solubilized in saline. […] Additional 4, 10 fold, or ½ log serial dilutions were made to provide a total of five drug concentrations plus controls. Aliquots of 100 microliters of different drug dilutions were added to the appropriate microtiter wells already containing 100 microliters of medium. Following drug addition, the plates were incubated for an additional 48 hours under the same conditions provided above. The assays were terminated by the addition of cold TCA as described above for the time zero controls. The plates were then incubated at 4° C. for at least 60 minutes to fix the cells to the bottom of the plate. […] After staining, unbound dye was removed by washing five times with 1% acetic acid and the plates were allowed to air dry for 12-24 hours at room temperature. […]"}, "MCF-7 cells [3]": {"system": "MCF-7 cells", "conditions": "MCF-7, previously determined NCI values; cited from earlier work"}, "HCT-116 cells [4]": {"system": "HCT-116 cells", "conditions": "HCT-116, previously determined NCI values; cited from earlier work"}, "HCT-15 cells [5]": {"system": "HCT-15 cells", "assay": "Cytotoxicity assay (sulforhodamine B), HCT-15", "type": "cell-based", "description": "as §1"}, "HCT-15 cells [6]": {"system": "HCT-15 cells", "conditions": "HCT-15, previously determined NCI values; cited from earlier work"}, "HT-29 cells [7]": {"system": "HT-29 cells", "assay": "Cytotoxicity assay (sulforhodamine B), HT-29", "type": "cell-based", "conditions": "HT-29, Assay 8, 48 h drug exposure", "description": "as §1"}, "HT-29 cells [8]": {"system": "HT-29 cells", "conditions": "HT-29, previously determined NCI values; cited from earlier work"}, "MCF-7 cells [9]": {"system": "MCF-7 cells", "assay": "Cytotoxicity assay (sulforhodamine B), MCF-7", "type": "cell-based", "description": "as §1"}, "NCI-H460 cells [10]": {"system": "NCI-H460 cells", "conditions": "NCI-H460, previously determined NCI values; cited from earlier work"}, "HCT-116 cells [11]": {"system": "HCT-116 cells", "assay": "Cytotoxicity assay (sulforhodamine B), HCT-116", "type": "cell-based", "conditions": "HCT-116, Assay 9, 48 h drug exposure", "description": "as §1"}, "rats [12]": {"system": "rats", "assay": "Blood urea nitrogen (BUN) as measure of renal function (Example 8)", "type": "in vivo", "conditions": "rat plasma, 8 mg/kg cisplatin, 9.9 mg/kg carboplatin, 19.6 mg/kg S-9168", "description": "(§2) Methods. Four groups of eight rats were cannulated as described in Example 6. […] The fourth group of rats was dosed with saline. Two rats in each group were sacrificed on days 4, 6, and 8 after treatment and 2 ml of blood were withdrawn. The blood sample was spun at 8000 rpm. for 2 minutes and the plasma was removed. BUN assays were performed using the Sigma Blood Urea Nitrogen Kit (Sigma Diagnostics Co., St. Louis, Mo.; Cat. No. 535-A)."}, "rats [13]": {"system": "rats", "assay": "Plasma creatinine as measure of renal function (Example 7)", "type": "in vivo", "conditions": "rat plasma, 8 mg/kg cisplatin, 9.9 mg/kg carboplatin, 19.6 mg/kg S-9168", "description": "Methods. Three groups of two rats were cannulated in the jugular vein and allowed to recover for approximately 24 hours. […] Blood samples (1.8 ml) were taken via the jugular vein canal before treatment (day 0) and 1, 2, 3, and 4 days after treatment, spun at 8000 rpm. for 2 minutes, and the plasma was removed. Creatinine assays were performed using the Sigma Creatinine Kit (Sigma Diagnostics Co., St. Louis, Mo.; Cat. No. 555-A) according to the Sigma creatinine assay protocol, in which the difference in color intensity at 500 nm of a sample containing creatinine and alkaline picrate solution before and after acidification is measured. The limit of linearity for the UV spectrophotometer was established by using the calibration curve procedure in the Sigma creatinine assay protocol.\nas §2, with “Creatinine” for “BUN”, “as described in Example 6.” for “using the Sigma Blood Urea Nitrogen Kit (Sigma Diagnostics Co., St. Louis, Mo.; Cat. No. 535-A).”"}, "OVCAR-3 cells [14]": {"system": "OVCAR-3 cells", "assay": "Cytotoxicity assay (sulforhodamine B), OVCAR-3", "type": "cell-based", "conditions": "OVCAR-3, Assay 6, 48 h drug exposure", "description": "as §1"}},
  "data": [
    {"smiles": "N.N.[Cl][Pt][Cl]", "note": "[Cisplatin, cis-diaminedichloroplatinum(II)]", "values": [
      {"measurement": "GI50 (log), NCI value", "setting": "OVCAR-3 cells [1]", "result": "(−6.32) Pt mg/ml (log)"},
      {"measurement": "GI50 (log)", "setting": "NCI-H460 cells [2]; NCI-H460, Assay 1, 48 h drug exposure", "result": "(−6.98) Pt mg/ml (log)"},
      {"measurement": "GI50 (log), NCI values", "setting": "MCF-7 cells [3]", "result": "(−6.22) Pt mg/ml (log)"},
      {"measurement": "GI50 (log), NCI values", "setting": "HCT-116 cells [4]", "result": "(−6.12) Pt mg/ml (log)"},
      {"measurement": "GI50 (log)", "setting": "HCT-15 cells [5]; HCT-15, Assay 5, 48 h drug exposure", "result": "(−6.65) Pt mg/ml (log)"},
      {"measurement": "GI50 (log), NCI values", "setting": "HCT-15 cells [6]", "result": "(−5.82) Pt mg/ml (log)"},
      {"measurement": "GI50 (log)", "setting": "HT-29 cells [7]", "result": "(−5.99) Pt mg/ml (log)"},
      {"measurement": "GI50 (log), NCI values", "setting": "HT-29 cells [8]", "result": "(−5.82) Pt mg/ml (log)"},
      {"measurement": "GI50 (log)", "setting": "MCF-7 cells [9]; MCF-7, Assay 2, 48 h drug exposure", "result": "(−5.10) Pt mg/ml (log)"},
      {"measurement": "GI50 (log)", "setting": "MCF-7 cells [9]; MCF-7, Assay 7, 48 h drug exposure", "result": "(−6.14) Pt mg/ml (log)"},
      {"measurement": "GI50 (log), NCI values", "setting": "NCI-H460 cells [10]", "result": "(−6.92) Pt mg/ml (log)"},
      {"measurement": "GI50 (log)", "setting": "HCT-116 cells [11]", "result": "(−6.13) Pt mg/ml (log)"}
    ]},
    {"smiles": "N.N.O=C([O-])C1(C(=O)[O-])CCC1.[Pt+2]", "note": "[Carboplatin, cis-diamine[1,1-cyclobutnaedicarboxylate(2-)-O,O′-platinum(II)]", "values": [
      {"measurement": "GI50 (log), NCI value", "setting": "OVCAR-3 cells [1]", "result": "(−4.91) Pt mg/ml (log)"},
      {"measurement": "average BUN level", "setting": "rats [12]; day 4", "result": 28.92, "unit": "mg/dL"},
      {"measurement": "average BUN level", "setting": "rats [12]; day 6", "result": 21.59, "unit": "mg/dL"},
      {"measurement": "average BUN level", "setting": "rats [12]; day 8", "result": 25.52, "unit": "mg/dL"},
      {"measurement": "GI50 (log)", "setting": "NCI-H460 cells [2]; NCI-H460, Assay 2, 48 h drug exposure", "result": "(−4.96) Pt mg/ml (log)"},
      {"measurement": "GI50 (log), NCI values", "setting": "MCF-7 cells [3]", "result": "(−4.61) Pt mg/ml (log)"},
      {"measurement": "average creatinine level", "setting": "rats [13]; day 4", "result": 0.6659, "unit": "mg/dL"},
      {"measurement": "average creatinine level", "setting": "rats [13]; day 6", "result": 0.7039, "unit": "mg/dL"},
      {"measurement": "average creatinine level", "setting": "rats [13]; day 8", "result": 0.5402, "unit": "mg/dL"},
      {"measurement": "GI50 (log), NCI values", "setting": "HCT-116 cells [4]", "result": "(−4.51) Pt mg/ml (log)"},
      {"measurement": "GI50 (log)", "setting": "HCT-15 cells [5]; HCT-15, Assay 2, 48 h drug exposure", "result": "(−4.31) Pt mg/ml (log)"},
      {"measurement": "GI50 (log)", "setting": "OVCAR-3 cells [14]", "result": "(−4.82) Pt mg/ml (log)"},
      {"measurement": "GI50 (log), NCI values", "setting": "HCT-15 cells [6]", "result": "(−4.31) Pt mg/ml (log)"},
      {"measurement": "GI50 (log), NCI values", "setting": "HT-29 cells [8]", "result": "(−4.41) Pt mg/ml (log)"},
      {"measurement": "GI50 (log), NCI values", "setting": "NCI-H460 cells [10]", "result": "(−5.21) Pt mg/ml (log)"}
    ]}
  ]
}
